The target of one test is rat TAAR1 (Rattus norvegicus (Rat), UniProt Q923Y9). As to the kind of experiment: Radioligand binding assay on rat TAAR1. The note with it: for Ki: rat TAAR1, HEK-293 membranes, second value of the pair (line below), read-out: Ki (μM) mouse/rat. An outline of the steps: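 Membranes from HEK293 cells stably expressing rat TAAR1 were incubated 1 hr at 4 °C with ^3[H]-(S)-4-[(ethyl-phenyl-amino)-methyl]-4,5-dihydro-oxazol-2-ylamine; nonspecific binding was defined with 10 μM unlabeled ligand. Compounds were tested at 10 pM to 10 μM in duplicate. Bound radioactivity was read by filtration and scintillation counting.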

Another test has as its target mouse TAAR1 (Mus musculus (Mouse), UniProt Q923Y8). Description: Radioligand binding assay on mouse TAAR1. The note with it: for Ki: mouse TAAR1, HEK-293 membranes, first value of the pair (before the slash), read-out: Ki (μM) mouse/rat. An outline of the steps: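 Membranes from HEK293 cells stably expressing mouse TAAR1, in HEPES-NaOH pH 7.4 with 0.1 mM EDTA, were incubated 1 h at 4°C with tritiated (S)-4-[(ethyl-phenyl-amino)-methyl]-4,5-dihydro-oxazol-2-ylamine and compound (10 pM–10 μM, duplicates). Nonspecific binding defined with 10 μM unlabeled ligand; bound radioactivity by filtration and scintillation counting.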

pKd: −log10 of the molar value. Where a name gives a salt, the structure may show the parent alone.

The pKd is the Kd on a negative log10 scale, so that one unit is a factor of ten.

rat TAAR1, sequence (Q923Y9 whole entry): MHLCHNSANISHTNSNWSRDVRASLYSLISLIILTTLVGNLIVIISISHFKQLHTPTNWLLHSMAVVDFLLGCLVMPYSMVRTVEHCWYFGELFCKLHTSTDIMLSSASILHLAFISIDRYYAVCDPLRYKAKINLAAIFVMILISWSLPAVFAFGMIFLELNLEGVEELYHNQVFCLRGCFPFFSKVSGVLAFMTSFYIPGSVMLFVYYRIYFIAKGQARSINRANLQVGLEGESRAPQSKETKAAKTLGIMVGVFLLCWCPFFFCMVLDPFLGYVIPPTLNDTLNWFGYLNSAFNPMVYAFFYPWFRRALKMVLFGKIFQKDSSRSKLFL
mouse TAAR1, sequence (Q923Y8 whole entry): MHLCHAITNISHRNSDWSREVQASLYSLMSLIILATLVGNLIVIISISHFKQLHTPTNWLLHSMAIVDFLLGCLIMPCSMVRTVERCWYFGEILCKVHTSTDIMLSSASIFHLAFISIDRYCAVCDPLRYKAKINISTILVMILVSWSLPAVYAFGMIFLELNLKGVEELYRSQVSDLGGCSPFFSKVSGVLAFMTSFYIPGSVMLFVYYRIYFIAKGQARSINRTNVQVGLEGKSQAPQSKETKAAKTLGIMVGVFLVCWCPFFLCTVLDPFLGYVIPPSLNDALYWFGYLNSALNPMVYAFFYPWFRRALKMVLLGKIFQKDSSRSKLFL

Turning to `COc1cc(C(=O)Nc2ccc([C@H]3CNCCO3)cc2Cl)cc(C#N)n1` [Example 124, (S)—N-(2-Chloro-4-(morpholin-2-yl)phenyl)-2-cyano-6-methoxyisonicotinamide hydrochloride], the Ki was determined as 0.0231 µM on rat TAAR1 and 0.0235 µM on mouse TAAR1.
In the same order, the values of `O=C(Nc1ccc([C@H]2CNCCO2)cc1F)c1cnn(-c2cncc(C(F)(F)F)n2)c1` [Example 125, (S)—N-(2-Fluoro-4-(morpholin-2-yl)phenyl)-1-(6-(trifluoromethyl)pyrazin-2-yl)-1H-pyrazole-4-carboxamide hydrochloride] are 0.0076 µM and 0.0182 µM.
For `O=C(Nc1ccc([C@H]2CNCCO2)cc1Cl)c1cnn(-c2cncc(C(F)(F)F)n2)c1` [Example 126, (S)—N-(2-Chloro-4-(morpholin-2-yl)phenyl)-1-(6-(trifluoromethyl)pyrazin-2-yl)-1H-pyrazole-4-carboxamide hydrochloride], the Ki worked out at 0.0047 µM at rat TAAR1 and 0.0202 µM on mouse TAAR1.
In the same order, the values of `O=C(Nc1ccc([C@H]2CNCCO2)c(F)c1)c1cnn(-c2cncc(C(F)(F)F)n2)c1` [Example 127, (S)—N-(3-Fluoro-4-(morpholin-2-yl)phenyl)-1-(6-(trifluoromethyl)pyrazin-2-yl)-1H-pyrazole-4-carboxamide hydrochloride] are 0.0016 µM and 0.007 µM.
Consider `O=C(Nc1ccc([C@H]2CNCCO2)c(Cl)c1)c1cnn(-c2cncc(C(F)(F)F)n2)c1` [Example 128, (S)—N-(3-Chloro-4-(morpholin-2-yl)phenyl)-1-(6-(trifluoromethyl)pyrazin-2-yl)-1H-pyrazole-4-carboxamide hydrochloride], for which the Ki at rat TAAR1 is 0.0025 µM; on mouse TAAR1 it was 0.0088 µM.
The like results for `O=C(Nc1ccc([C@H]2CNCCO2)c(F)c1)c1cnn(-c2cc(C(F)(F)F)ncn2)c1` [Example 129, (S)—N-(3-Fluoro-4-(morpholin-2-yl)phenyl)-1-(6-(trifluoromethyl)pyrimidin-4-yl)-1H-pyrazole-4-carboxamide hydrochloride] were, in that order, 0.0025 µM and 0.0073 µM.
As for `O=C(Nc1ccc([C@H]2CNCCO2)c(F)c1)c1cnn(-c2ccc(C(F)(F)F)nc2)c1` [Example 130, (S)—N-(3-Fluoro-4-(morpholin-2-yl)phenyl)-1-(6-(trifluoromethyl)pyridin-3-yl)-1H-pyrazole-4-carboxamide hydrochloride], the Ki on rat TAAR1 was found to be 0.0038 µM; at mouse TAAR1, 0.0075 µM.
As to `N#Cc1cnc(-n2cc(C(=O)Nc3ccc([C@H]4CNCCO4)c(F)c3)cn2)cn1` [Example 131, (S)-1-(5-Cyanopyrazin-2-yl)-N-(3-fluoro-4-(morpholin-2-yl)phenyl)-1H-pyrazole-4-carboxamide hydrochloride], the figures for the Ki at rat TAAR1 and at mouse TAAR1 were 0.0144 µM and 0.0254 µM, respectively.
The like results for `N#Cc1cc(Cl)cc(C(=O)Nc2ccc([C@H]3CNCCO3)c(F)c2)n1` [Example 133, (S)-4-Chloro-6-cyano-N-(3-fluoro-4-(morpholin-2-yl)phenyl)picolinamide hydrochloride] were, in that order, 0.018 µM and 0.0095 µM.
Regarding `Cc1nc(C(=O)Nc2ccc([C@H]3CNCCO3)cc2F)ccc1C#N` [Example 135, (S)-5-Cyano-N-(2-fluoro-4-(morpholin-2-yl)phenyl)-6-methylpicolinamide hydrochloride], the Ki amounted to 0.578 µM on rat TAAR1 and 0.0105 µM on mouse TAAR1.
The like results for `Cc1nc(C(=O)Nc2ccc([C@H]3CNCCO3)c(F)c2)ccc1C#N` [Example 136, (S)-5-Cyano-N-(3-fluoro-4-(morpholin-2-yl)phenyl)-6-methylpicolinamide hydrochloride] were, in that order, 0.0585 µM and 0.0075 µM.
In the same order, the values of `O=C(Nc1ccc([C@H]2CNCCO2)c(F)c1)c1cnc(C(F)(F)F)cn1` [Example 137, (S)—N-(3-Fluoro-4-(morpholin-2-yl)phenyl)-5-(trifluoromethyl)pyrazine-2-carboxamide hydrochloride] are 0.0301 µM and 0.0067 µM.
Take `CCOc1ccc(C(=O)Nc2ccc([C@H]3CNCCO3)cc2F)cn1` [Example 138, (S)-6-Ethoxy-N-(2-fluoro-4-(morpholin-2-yl)phenyl)nicotinamide]: the Ki at rat TAAR1 stood at 0.308 µM; at mouse TAAR1 it was 0.0042 µM.
In the case of `CCN(C[C@H]1COC(N)=N1)c1ccccc1` [^3[H]-(S)-4-[(ethyl-phenyl-amino)-methyl]-4,5-dihydro-oxazol-2-ylamine, reference compound], the pKd at rat TAAR1 (rat TAAR1 membranes, saturation curve, usual value, read-out: dissociation constant (Kd) of the radioligand) is ~8.64; at mouse TAAR1 (mouse TAAR1 membranes, saturation curve, usual value, read-out: dissociation constant (Kd) of the radioligand), ~9.15.
